Test results from patent publication US7261876B2, “Multivalent constructs for therapeutic and diagnostic applications” (Bracco International BV, priority 2002, dated 2007).
“Also recorded” adds a separate entry of the source. No end group written: not given here.

Tests used:
[1] = test system: SW-480 human colon carcinoma cells; assay: In vivo xenograft tumor model; conditions: Study Day 22; 6.0 mg/kg IV, five doses
Protocol: Female athymic nude mice (Crl:NU/NU-nuBR) at 6–8 weeks of age were used in this study. […] Test compound and vehicle were administered intraperitoneally (IP), Cisplatin was administered intravenously (IV). Tumor measurements were recorded twice weekly using hand-held calipers. Mice were monitored daily for signs of toxicity and morbidity. At study termination, animals were euthanized by carbon dioxide overdose and necropsied for tissue collection.
A total of nine (9) groups were used in this study. Each group contained ten (10) tumor-bearing mice. Groups 1 and 2 contained untreated and vehicle treated negative control mice, respectively. […] Group 9 contained mice that received cisplatin, a standard chemotherapeutic compound as a positive control.
Dosing began the same day that animals were randomly sorted into groups (Study Day 7). Each dose was removed from the dose vial using aseptic technique for each animal and the injection site was wiped with an alcohol swab prior to dose administration. […]
Clinical Observations of each animal were performed and recorded at least once daily for toxicity, morbidity and mortality. […]
In accordance with the protocol, tumor measurements were taken twice weekly throughout the study by measuring the length and width of tumors with calibrated calipers. […] Tumor weights were calculated using the following formula: mg=(L×W^2)/2. […]

[2] = test system: HUVECs; assay: Endothelial cell proliferation assay, BrdU detection; format: cell-based, human; conditions: 10 μg/mL, in the presence of VEGF (30 ng/mL)
Protocol: Briefly, freshly isolated HUVECs (between p3–6) were cultured in RPMI+10% FCS+1% antibiotics+1% 1-glutamin+0.4% BBE (bovine brain extract) and seeded per well, 5000–10000/well in 100 μL. The cells were allowed to recover for 24 h prior to use. Then the cells were washed with PBS twice and treated for 48 h with anti-VEGF antibody (positive control) or peptides A, B and C (0.1 and 10 ug/mL) in RPMI+0.1% BSA+1% 1-glutamin. The following 6 variables were tested in 2 series (n=4): • Series I: w/o VEGF • Series II: w/VEGF (30 ng/mL) • 1. Standard medium: RPMI+10% FCS+1% antibiotics+1% 1-glutamin+0.4% BBE • 2. Negative control 1: RPMI (true starvation) • 3. Negative control 2: RPMI+0.1% BSA+1% 1-glutamin • 1. Positive control: anti-VEGF 10 μg/ml in RPMI+0.1% BSA+1% 1-glutamin • 5. 0.1 μg/ml KDR peptides in RPMI+0.1% BSA+1% 1-glutamin • 6. […] Note: Background binding was determined by omitting the anti-BrdU antibody in 4 wells with control cells (cultured in complete medium; EBM+BulletKit) and by complete labeling of cells that was not exposed to BrdU.

[3] = test system: VEGF-induced migration of HUVECs; assay: HUVEC migration/invasion assay; format: cell-based, human
[4] = biological target: T1, KDR-transfected 293H cells (Homo sapiens, UniProt P35968); assay: Binding of peptide-conjugated microbubbles to KDR-transfected cells; format: cell-based
T1 construct: Both PCR products were digested with Not1 and ligated together to create the full-length receptor; V5-His (encoded by the vector); expressed in transfected cells; host or cells: 293H cells (Invitrogen cat. # 11631), transient lipofectamine 2000 transfection
T1 sequence (P35968 20-1356): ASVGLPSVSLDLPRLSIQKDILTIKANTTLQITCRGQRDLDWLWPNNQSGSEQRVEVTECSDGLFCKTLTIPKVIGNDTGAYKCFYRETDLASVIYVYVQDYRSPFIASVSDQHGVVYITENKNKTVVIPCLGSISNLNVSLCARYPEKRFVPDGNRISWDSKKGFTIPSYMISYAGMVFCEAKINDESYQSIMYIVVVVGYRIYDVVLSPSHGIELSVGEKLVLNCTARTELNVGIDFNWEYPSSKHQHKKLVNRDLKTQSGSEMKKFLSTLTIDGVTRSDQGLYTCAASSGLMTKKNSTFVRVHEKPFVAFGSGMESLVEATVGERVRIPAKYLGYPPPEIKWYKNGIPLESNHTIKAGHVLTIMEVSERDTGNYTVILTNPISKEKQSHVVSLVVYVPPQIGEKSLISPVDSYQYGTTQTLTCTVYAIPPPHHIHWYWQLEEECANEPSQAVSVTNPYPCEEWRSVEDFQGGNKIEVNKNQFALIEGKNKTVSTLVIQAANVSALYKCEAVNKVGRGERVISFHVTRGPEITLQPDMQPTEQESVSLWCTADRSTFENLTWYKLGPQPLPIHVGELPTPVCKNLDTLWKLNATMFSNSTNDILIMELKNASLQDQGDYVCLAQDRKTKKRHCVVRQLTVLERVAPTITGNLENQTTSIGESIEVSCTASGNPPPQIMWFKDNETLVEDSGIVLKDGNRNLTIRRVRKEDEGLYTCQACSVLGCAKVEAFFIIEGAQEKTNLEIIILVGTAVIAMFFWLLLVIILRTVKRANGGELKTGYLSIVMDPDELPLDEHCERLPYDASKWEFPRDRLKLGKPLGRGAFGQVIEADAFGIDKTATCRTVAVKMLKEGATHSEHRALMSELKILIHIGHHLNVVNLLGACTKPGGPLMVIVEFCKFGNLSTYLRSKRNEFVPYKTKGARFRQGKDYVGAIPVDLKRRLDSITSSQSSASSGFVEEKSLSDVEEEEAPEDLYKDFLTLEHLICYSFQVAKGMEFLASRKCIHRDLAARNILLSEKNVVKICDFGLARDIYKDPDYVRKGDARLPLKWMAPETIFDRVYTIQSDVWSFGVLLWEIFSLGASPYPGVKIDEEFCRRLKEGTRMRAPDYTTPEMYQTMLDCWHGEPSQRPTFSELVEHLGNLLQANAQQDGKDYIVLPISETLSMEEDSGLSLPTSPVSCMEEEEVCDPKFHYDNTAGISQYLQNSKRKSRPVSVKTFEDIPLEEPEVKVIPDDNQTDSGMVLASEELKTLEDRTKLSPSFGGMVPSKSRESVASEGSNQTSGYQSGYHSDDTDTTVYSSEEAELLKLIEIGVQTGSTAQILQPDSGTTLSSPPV
Protocol: 293H cells were transfected with KDR cDNA. […] Competition was also performed using a non-binding control peptide as a competing compound.
293H cells were transfected with KDR cDNA.
D23 (a dimeric construct of P6- and P12-derived sequences) was conjugated with a preparation of microbubbles as above described, according to the following methodology. The thioacetylated peptide ([…]) was dissolved in 20 μl DMSO and then diluted in 1 ml of Phosphate Buffer Saline (PBS). This solution was mixed to the N-MPB-functionalized microbubbles dispersed in 18 ml of PBS-EDTA 10 mM, pH 7.5 and 2 ml of deacetylation solution (50 mM sodium phosphate, 25 mM EDTA, 0.5 M hydroxylamine.HCl, pH 7.5) was added. The headspace was filled with C4F10/Air (50/50) and the mixture was incubated for 2.5 hours at room temperature under gentle agitation (rotating wheel), in the dark. Conjugated bubbles were washed by centrifugation. Similarly, the monomer peptides making up D23 were separately conjugated to two different microbubble preparations according to the methodology described above.

[5] = biological target: T2, KDR/VEGF complex (Homo sapiens, UniProt P35968); assay: Cell based assay for binding of KDR/VEGF complex binders (peptide-125I-streptavidin complexes); conditions: in the presence of VEGF
T2 construct: Both PCR products were digested with Not1 and ligated together to create the full-length receptor; V5-His (encoded by the vector); expressed in transfected cells; host or cells: 293H cells, transiently transfected; VEGF added exogenously
T2 sequence (P35968 20-1356): as above
T2 sequence (P15692 27-191 isoform P15692-4 partner): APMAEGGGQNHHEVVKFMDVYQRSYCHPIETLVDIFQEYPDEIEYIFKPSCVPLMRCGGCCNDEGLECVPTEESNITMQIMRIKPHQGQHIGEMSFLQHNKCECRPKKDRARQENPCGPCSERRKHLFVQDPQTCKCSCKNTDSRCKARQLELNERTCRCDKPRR
From the text: Furthermore, these peptides, as well as other peptides which bind KDR/VEGF complex may advantageously be included in heteromultimers of the invention.

[6] = biological target: T3, KDR-expressing 293H cells (Homo sapiens, UniProt P35968); assay: Bead-binding assay, peptide-conjugated fluorescent beads; format: cell-based; conditions: Neutravidin-coated beads, 40% FBS
T3 construct: Both PCR products were digested with Not1 and ligated together to create the full-length receptor; V5-His (encoded by the vector); expressed in transfected cells; host or cells: 293H cells (Invitrogen cat. # 11631), transient lipofectamine 2000 transfection
T3 sequence (P35968 20-1356): as the sequence (P35968 20-1356) above
Protocol: As a positive control, biotinylated anti-KDR antibody was incubated with the Neutravidin-coated beads as above, except that 0.03 mg of the biotinylated antibody preparation in PBS (Gibco 14190-136) was used instead of peptide solution. Beads can be stored at 4° C. until needed for up to 1 week.
293H cells were transfected using the protocol described in Example 6. Transfection was done in black/clear 96-well plates (Becton Dickinson, cat. # 354640). The cells in one half of the plate (48 wells) were mock-transfected (with no DNA) and those in the other half of the plate were transfected with KDR cDNA. The cells were 80–90% confluent at the time of transfection and completely confluent the next day, at the time of the assay; otherwise the assay was aborted.
From the above bead preparations, 0.12 mL was spun for 10 minutes at 2000 rpm in a microcentrifuge at room temperature. The supernatant was removed and 0.06 mL of MES pH 6.0 was added. Each bead solution was then vortexed and sonicated in a water bath 15 min. To 1.47 mL of DMEM, high glucose (GIBCO 11965-084) with 1×MEM Non-Essential Amino Acids Solution (NEAA) (GIBCO 11140-050) and 40% FBS (Hyclone SH30070.02) 0.03 mL of the sonicated bead preparations was added. 96-well plates seeded with 293H cells which have been mock-transfected in columns 1 to 6, and KDR-transfected in columns 7 to 12 (as described above), were drained and washed once with DMEM, high glucose with 1×NEAA and 40% FBS. To each well was added 0.1 mL of bead solution, six wells per bead preparation. […] After draining, 0.1 mL of PBS was added per well. The plates were then read on a Packard FluoroCount fluorometer at excitation 550 nm/emission 620 nm. Unconjugated Neutravidin beads were used as a negative control while beads conjugated with a biotinylated anti-KDR antibody were used as the positive control for the assay.
To calculate the number of beads bound per well, a standard curve with increasing numbers of the same fluorescent beads was included in each assay plate. The standard curve was used to calculate the number of beads bound per well based on the fluorescence intensity of each well.

[7] = biological target: T4, KDR transfected cells (Homo sapiens, UniProt P35968); assay: Competition of free peptides with P5-XB/avidin HRP complex (Experiment E); format: binding; conditions: P5-XB/avidin HRP 3.33 nM; free peptide 0–[…]
T4 construct: Both PCR products were digested with Not1 and ligated together to create the full-length receptor; V5-His (encoded by the vector); expressed in transfected cells; host or cells: 293H cells (Invitrogen cat. # 11631), transient lipofectamine 2000 transfection
T4 sequence (P35968 20-1356): as above
From the text: If the peptides bind to the same site on KDR, they would likely compete with each other for binding to KDR, whereas if the peptides bind to different sites, there should be no competition between the peptides for binding to KDR.

[8] = biological target: T5, KDR expressed by transfected 293H cells (Homo sapiens, UniProt P35968); assay: Competition with 125I-labeled VEGF for binding to KDR-transfected 293H cells
T5 construct: Both PCR products were digested with Not1 and ligated together to create the full-length receptor; V5-His (encoded by the vector); expressed in transfected cells; host or cells: 293H cells (Invitrogen cat. # 11631), transient lipofectamine 2000 transfection
T5 sequence (P35968 20-1356): as above
Protocol: Once prepared, the solutions were kept on ice until ready to use.
Cells were used 24 h after transfection, and to prepare the cells for the assay, they were washed 3 times with room temperature M199 medium and placed in the refrigerator. […] After incubating at 4° C. for 2 h, the plates were washed 5 times with cold binding buffer, gently blotted dry and checked under a microscope for cell loss. 100 μL of solubilizing solution (2% Triton X-100, 10% Glycerol, 0.1% BSA) was added to each well and the plates were incubated at room temperature for 30 minutes. The solubilizing solution in each well was mixed by pipeting up and down, and transferred to 1.2 mL tubes. Each well was washed twice with 100 μL of solubilizing solution and the washes were added to the corresponding 1.2 mL tube.
After washing the cells, the bound radioactivity was quantitated on a gamma counter.

[9] = biological target: T6, KDR-expressing cells (Homo sapiens, UniProt P35968); assay: Displacement assay competing with P12-XB/streptavidin-HRP complex for binding to KDR-expressing cells; conditions: complex concentration 5.5 nM
T6 construct: Both PCR products were digested with Not1 and ligated together to create the full-length receptor; V5-His (encoded by the vector); expressed in transfected cells; host or cells: 293H cells (Invitrogen cat. # 11631), transient lipofectamine 2000 transfection
T6 sequence (P35968 20-1356): as above
Protocol: After determining the specific binding under each experimental condition, the IC50 for each peptide was determined (where possible).

[10] = biological target: T1, KDR-transfected 293H cells; assay: Binding of radiolabeled (Tc, I, Lu) peptides to KDR-transfected 293H cells

N.N.[Cl][Pt][Cl] [Cisplatin]
mean tumor weight [1]: 995 mg

CC(=O)N[C@@H](C)C(=O)NCC(=O)N1CCC[C@H]1C(=O)N[C@H](C(=O)N[C@@H](Cc1c[nH]c2ccccc12)C(=O)N[C@H]1CSSC[C@@H](C(=O)N[C@@H](Cc2c[nH]c3ccccc23)C(=O)N[C@@H](CC(C)C)C(=O)N[C@@H](Cc2ccccc2)C(=O)NCC(=O)N[C@H](C(=O)NCC(=O)NCC(=O)NCC(=O)N[C@@H](CCCCN)C(N)=O)[C@@H](C)O)NC(=O)[C@H](Cc2ccc(O)cc2)NC(=O)[C@H](Cc2ccc(O)cc2)NC(=O)[C@H](Cc2c[nH]c3ccccc23)NC(=O)[C@H](CC(=O)O)NC(=O)[C@H](CC(=O)O)NC(=O)[C@H](CCC(=O)O)NC1=O)[C@@H](C)O [P12-G, Ac-AGPTWC*EDDWYYC*WLFGT-GGGK-NH2]
inhibition of HUVEC proliferation [2]: does not inhibit proliferation

CC(C)c1cc(/C=C(\C#N)C(=O)NCCCc2ccccc2)cc(C(C)C)c1O [SU1498, (E)-3-(3,5-Diisopropyl-4-hydroxyphenyl)-2-[(3-phenyl-n-propyl)aminocarbonyl]acrylonitrile]
VEGF-induced migration blocked ([3]; 3 micromolar): 47%

AGPTWCEDDWYYCWLFGT [P12]
competition of conjugated microbubbles by free peptide ([4]; Experiment A, free peptide 100 μM to 3 nM): competed off by the corresponding free KDR-specific peptide

Ac-AGMPWCVEKDHWDCWWWGTGGGK(Biotin-JJ)-NH2 [P31-XB]
specific binding of peptide-125I-streptavidin complex (KDR-mock) [5]: Only the complex containing P30-XB showed specific binding

Ac-AGPGPCKGYMPHQCWYMGTGGGK(Biotin-JJ)-NH2 [P30-XB]
specific binding of peptide-125I-streptavidin complex (KDR-mock) [5]: specifically bound to KDR-transfected 293H cells; also recorded: showed specific binding

Ac-AGPKWC*EEDWYYC*MITGT-GGGK-(Biotin)-NH2 [P5-B]
binding of ligand-coated fluorescent beads to KDR-transfected vs mock-transfected cells [6]: did not bind to the KDR-transfected cells significantly more than to mock-transfected cells

Ac-AGPKWC*EEDWYYC*MITGTGGGK-(Biotin-JJ-)-NH2 [P5-XB]
competition with P5-XB/avidin HRP solution for binding [7]: does compete
binding of ligand-coated fluorescent beads to KDR-transfected vs mock-transfected cells [6]: Specific binding to KDR was detected
percentage inhibition of 125I-labeled VEGF binding ([8]; 0.3 μM peptide): 24.41±8.43%
percentage inhibition of 125I-labeled VEGF binding ([8]; 30 μM peptide): 47.95±5.09%

Ac-AGYGPCKNMPPWMCWHEGTGGGK(Biotin-JJ)-NH2 [P32-XB]
specific binding of peptide-125I-streptavidin complex (KDR-mock) [5]: Only the complex containing P30-XB showed specific binding

Ac-DWYYGGGK-NH2 [F1]
inhibition of P12-XB streptavidin-HRP complex binding [9]: IC50 below one micromolar

Ac-ERVTTCWPGEYGGVECYSVAY-NH2 (cysteine pairing not given here) [PG-1, reference compound]
VEGF-stimulated migration ([3]; up to 62.5 nM): had no effect on VEGF-stimulated migration
competition with 125I-VEGF for binding to KDR-transfected cells [8]: competed about equally well

Ac-GDSRVC*WEDSWGGEVC*FRYDP-GGGK-(Biotin)-NH2 [P6-B]
binding of ligand-coated fluorescent beads to KDR-transfected vs mock-transfected cells [6]: showed greater binding to KDR-transfected cells

Ac-GDSRVC*WEDSWGGEVC*FRYDPGGGK-(Biotin-JJ-)-NH2 [P6-XB]
competition with P5-XB/avidin HRP solution for binding [7]: do not compete

GDSRVCWEDSWGGEVCFRYDP [P6]
binding of ligand-coated fluorescent beads to KDR-transfected vs mock-transfected cells [6]: Specific binding to KDR was detected
binding of conjugated microbubbles ([4]; Experiment C, 50% human serum): bound poorly

Tc-labeled D18: 99mTc-labeled scrambled dimer D18 (peptide 1 APGTWCDYDWEYCWLGTFGGGK; peptide 2 GVDFRCEWSDWGEVGCRSPDYGGGK; not fully specified (bridges); cysteine pairing not given here; also: 99mTc label, site not given here, heterodimer, linkage not given here)
binding of radiolabeled compound to KDR transfected vs mock transfected 293H cells [10]: displayed no affinity for either mock-transfected or KDR-transfected 293H cells
